# From patent publication US5563154A, “Tetrahydro-quinolinyl/isoquinolinyl-terminal alkylamino ethynyl alanine amino diol compounds for treatment of hypertension” (G. D. Searle & Co., priority 1995, dated 1996)
# Non-standard residues stand in square brackets, D forms with d. Residues, ends and D or L forms follow the SMILES beside them. *: point of attachment. Sta = CC(C)C[C@H](N)[C@@H](O)CC(=O)O; Isovaleryl = CC(C)CC(=O)*
# How the values were obtained:
# [1] = molecular target: T1, human renin (Homo sapiens, UniProt P00797); assay: Human Renin Inhibition in vitro (angiotensin I produced, by radioimmunoassay); format: biochemical; settings: pH 7.4, 37° C., two hours, human plasma
# T1 construct: purchased National Institute for Biological Standards, London
# T1 sequence (P00797 67-406): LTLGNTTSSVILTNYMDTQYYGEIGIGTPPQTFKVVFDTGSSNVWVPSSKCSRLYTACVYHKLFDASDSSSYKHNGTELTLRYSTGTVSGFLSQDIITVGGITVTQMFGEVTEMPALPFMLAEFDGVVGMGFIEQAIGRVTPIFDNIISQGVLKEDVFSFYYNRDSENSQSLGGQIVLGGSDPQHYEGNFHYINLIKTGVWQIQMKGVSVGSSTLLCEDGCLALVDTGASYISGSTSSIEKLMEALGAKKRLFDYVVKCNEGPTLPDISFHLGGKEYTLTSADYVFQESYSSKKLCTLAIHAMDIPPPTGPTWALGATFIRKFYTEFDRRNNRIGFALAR
# Procedure: Compounds of Formula I were evaluated as inhibitors of human renin in an in vitro assay, as follows: This human renin inhibition test has been previously described in detail [Papaioannou et al., Clinical and Experimental Hypertension, A7(9), 1243-1257 (1985)]. Human renin was obtained from the National Institute for Biological Standards, London. An incubation mixture was prepared containing the following components: in a total volume of 0.25 mL: 100 mM Tris-acetate buffer at pH 7.4, 25×10^-6 Goldblatt units of renin, 0.05 mL of plasma from human volunteers taking oral contraceptives, 6.0 mM Na-EDTA, 2.4 mM phenylmethyl sulfonyl fluoride, 1.5 mM 8-hydroxyquinoline, 0.4 mg/mL bovine serum albumin (BSA), and 0.024 mg/mL neomycin sulfate. This mixture was incubated for two hours at 37° C. in the presence or absence of renin inhibitors. The produced angiotensin I was determined by radioimmunoassay (New England Nuclear kit). Test compounds to be assayed were dissolved in DMSO and diluted with 100mM Tris-acetate buffer at pH 7.4 containing 0.5% BSA to the appropriate concentration. The final concentration of organic solvent in the reaction mixture was less than 1%. Control incubations at 37° C. were used to correct for effects of organic solvent on renin activity.
# [2] = test system: cathepsin D; settings: cited from earlier work
# [3] = test system: hog renin; settings: after the injection of hog renin into nephrectomized rats; cited from earlier work
# [4] = test system: pepsin; settings: cited from earlier work
# [5] = test system: renin; settings: cited from earlier work
Compound,IC50 [1],inhibitor of cathepsin D [2],reduce blood pressure in vivo [3],inhibitor of pepsin [4],inhibitor of renin [5]
"C#CC[C@H](NC(=O)[C@@H](CC(=O)N(C)CCc1ccccn1)Cc1ccccc1)C(=O)N[C@@H](CC1CCCCC1)[C@@H](O)[C@@H](O)CC(C)C (relative stereo) [Example 1, N^1-[1R*-[[[1S, 1R*- (cyclohexylmethyl)-2S*, 3R*-dihydroxy-5-methylhexyl]amino]carbonyl]-3-butynyl]-N^4-methyl-2S*-(phenylmethyl)-N^4-[2-(2-pyridinyl)ethyl]butanediamide]",0.15 nM,,,,
CC(C)CC(=O)N[C@H](C(=O)N[C@H](C(=O)N[C@@H](CC(C)C)[C@@H](O)CC(=O)N[C@@H](C)C(=O)N[C@@H](CC(C)C)[C@@H](O)CC(=O)O)C(C)C)C(C)C [pepstatin] (Isovaleryl-VV[Sta]A[Sta]-OH),,inhibitor,reduce blood pressure in vivo,inhibitor,inhibitor
